This note sets out measurements from ChEMBL document CHEMBL1139937, “Novel 3-galloylamido-N'-substituted-2,6-piperidinedione-N-acetamide peptidomimetics as metalloproteinase inhibitors” (Bioorg Med Chem Lett, 2007).

Structures are written as SMILES.

One assay has as its target T1, Aminopeptidase N (Sus scrofa, UniProt P15145).
T1 sequence (P15145 whole entry): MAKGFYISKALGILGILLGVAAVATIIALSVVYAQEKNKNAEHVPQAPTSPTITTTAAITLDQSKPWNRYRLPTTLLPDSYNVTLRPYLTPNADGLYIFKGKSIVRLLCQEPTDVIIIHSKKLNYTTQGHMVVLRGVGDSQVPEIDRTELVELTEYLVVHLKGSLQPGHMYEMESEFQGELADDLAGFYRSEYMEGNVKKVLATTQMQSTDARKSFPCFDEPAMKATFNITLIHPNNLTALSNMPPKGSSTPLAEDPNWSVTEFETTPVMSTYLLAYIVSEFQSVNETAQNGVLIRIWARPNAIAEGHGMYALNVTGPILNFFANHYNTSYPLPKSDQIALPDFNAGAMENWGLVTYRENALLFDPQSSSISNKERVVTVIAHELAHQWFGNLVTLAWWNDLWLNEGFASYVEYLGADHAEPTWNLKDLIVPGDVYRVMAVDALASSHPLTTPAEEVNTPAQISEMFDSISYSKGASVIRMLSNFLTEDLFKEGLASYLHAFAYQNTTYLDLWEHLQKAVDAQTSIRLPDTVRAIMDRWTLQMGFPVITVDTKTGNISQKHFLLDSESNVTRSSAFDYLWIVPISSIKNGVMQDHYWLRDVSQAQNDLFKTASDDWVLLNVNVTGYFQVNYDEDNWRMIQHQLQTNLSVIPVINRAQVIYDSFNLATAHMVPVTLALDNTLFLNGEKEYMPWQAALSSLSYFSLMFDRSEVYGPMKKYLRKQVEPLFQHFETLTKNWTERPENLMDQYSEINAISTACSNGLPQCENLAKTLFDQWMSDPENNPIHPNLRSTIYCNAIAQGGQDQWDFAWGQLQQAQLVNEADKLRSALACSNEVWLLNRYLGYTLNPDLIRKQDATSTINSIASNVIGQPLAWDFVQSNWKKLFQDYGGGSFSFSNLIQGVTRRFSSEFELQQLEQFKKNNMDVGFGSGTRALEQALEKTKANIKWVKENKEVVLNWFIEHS
Briefly: Inhibition of pig kidney microsomal aminopeptidase assessed as liberation of p-nitroanilide.

Assay [1] has as its target 72 kDa type IV collagenase (Homo sapiens, UniProt P08253). Nature of the assay: Inhibition of MMP2 after 30 mins.

Chain of 72 kDa type IV collagenase (P08253 whole entry): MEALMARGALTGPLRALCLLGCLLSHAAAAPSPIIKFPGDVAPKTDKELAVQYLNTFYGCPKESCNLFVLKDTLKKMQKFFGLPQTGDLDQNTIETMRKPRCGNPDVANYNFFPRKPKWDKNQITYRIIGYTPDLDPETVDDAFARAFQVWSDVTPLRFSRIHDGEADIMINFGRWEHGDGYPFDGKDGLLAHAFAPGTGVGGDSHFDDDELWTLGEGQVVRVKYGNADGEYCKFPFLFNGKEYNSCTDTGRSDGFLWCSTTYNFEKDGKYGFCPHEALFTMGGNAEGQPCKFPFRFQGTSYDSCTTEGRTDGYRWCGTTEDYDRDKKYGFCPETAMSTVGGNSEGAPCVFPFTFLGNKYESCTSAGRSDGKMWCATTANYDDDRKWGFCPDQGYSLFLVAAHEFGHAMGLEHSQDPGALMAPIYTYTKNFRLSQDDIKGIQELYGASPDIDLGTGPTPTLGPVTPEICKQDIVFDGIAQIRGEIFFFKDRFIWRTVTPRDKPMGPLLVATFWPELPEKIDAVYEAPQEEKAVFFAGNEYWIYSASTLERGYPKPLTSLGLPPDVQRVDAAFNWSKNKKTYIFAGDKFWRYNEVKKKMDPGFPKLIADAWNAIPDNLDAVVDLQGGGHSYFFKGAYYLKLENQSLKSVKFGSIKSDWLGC

For orientation: IC50 means the concentration needed to halve the response being measured. Regarding `COC(=O)CNC(=O)CN1C(=O)CC[C@H](NC(=O)c2cc(OC)c(OC)c(OC)c2)C1=O`, the IC50 at Aminopeptidase N was found to be 55.4 µM; in assay [1] it was 4.4 µM. In the case of `COC(=O)[C@@H](NC(=O)CN1C(=O)CC[C@H](NC(=O)c2cc(OC)c(OC)c(OC)c2)C1=O)[C@@H](C)O`, the IC50 on Aminopeptidase N came out at 51.9 µM; in assay [1], 1.8 µM. The matching figures for `COC(=O)[C@H](C)NC(=O)CN1C(=O)CC[C@H](NC(=O)c2cc(OC)c(OC)c(OC)c2)C1=O`: 18.9 µM and 1.2 µM.

As to `COC(=O)[C@H](Cc1cnc[nH]1)NC(=O)CN1C(=O)CC[C@H](NC(=O)c2cc(OC)c(OC)c(OC)c2)C1=O`, the results for the IC50 (at Aminopeptidase N; in assay [1]) were 5.2 µM and 13 µM, respectively.

Consider `COC(=O)[C@H](Cc1c[nH]c2ccccc12)NC(=O)CN1C(=O)CC[C@H](NC(=O)c2cc(OC)c(OC)c(OC)c2)C1=O`, for which the figures for the IC50 (on Aminopeptidase N; in assay [1]) were 43.1 µM and 1.2 µM, respectively. The matching figures for `COC(=O)C[C@H](NC(=O)CN1C(=O)CC[C@H](NC(=O)c2cc(OC)c(OC)c(OC)c2)C1=O)C(=O)OC`: 21.7 µM and 0.5 µM. The matching figures for `COC(=O)[C@H](CCCNC(N)=N[N+](=O)[O-])NC(=O)CN1C(=O)CC[C@H](NC(=O)c2cc(OC)c(OC)c(OC)c2)C1=O`: 42 µM and 0.3 µM. For the compound `COC(=O)[C@H](CS)NC(=O)CN1C(=O)CC[C@H](NC(=O)c2cc(OC)c(OC)c(OC)c2)C1=O`, the IC50 on Aminopeptidase N came out at 50.3 µM; in assay [1], 1.7 µM. Regarding `COC(=O)[C@@H](Cc1ccccc1)NC(=O)CN1C(=O)CC[C@H](NC(=O)c2cc(OC)c(OC)c(OC)c2)C1=O`, the results for the IC50 (on Aminopeptidase N; in assay [1]) were 46.2 µM and 1.4 µM, respectively. For `CC[C@H](C)[C@H](NC(=O)CN1C(=O)CC[C@H](NC(=O)c2cc(OC)c(OC)c(OC)c2)C1=O)C(=O)OC`, the half-maximal inhibitory concentration (IC50) was 49.3 µM at Aminopeptidase N and 4.3 µM in assay [1]. For the compound `COC(=O)CN1C(=O)CC[C@H](NC(=O)c2cc(OC)c(OC)c(OC)c2)C1=O`, the IC50 was 63.4 µM at Aminopeptidase N and 10.6 µM in assay [1].

Consider `COC(=O)[C@H](CCSC)NC(=O)CN1C(=O)CC[C@H](NC(=O)c2cc(OC)c(OC)c(OC)c2)C1=O`, for which the half-maximal inhibitory concentration (IC50) at Aminopeptidase N turned out to be 20.7 µM; in assay [1] it was 1.2 µM.

On to `COC(=O)CCNC(=O)CN1C(=O)CC[C@H](NC(=O)c2cc(OC)c(OC)c(OC)c2)C1=O`, for which the IC50 came out at 53.7 µM at Aminopeptidase N and 2.2 µM in assay [1]. Consider `COC(=O)[C@](C)(Cl)NC(=O)CN1C(=O)CC[C@H](NC(=O)c2cc(OC)c(OC)c(OC)c2)C1=O`, for which the results for the half-inhibitory concentration (IC50) (at Aminopeptidase N; in assay [1]) were 50 µM and 15.6 µM, respectively.

For `CC(C)C[C@H](NC(=O)[C@@H](O)[C@H](N)Cc1ccccc1)C(=O)O` [UBENIMEX], the IC50 in assay [1] worked out at 3.4 µM. For the compound `COc1cc(C(=O)N[C@H]2CCC(=O)N(CC(=O)O)C2=O)cc(OC)c1OC`, the values for the IC50 (on Aminopeptidase N; in assay [1]) were 49.8 µM and 4 µM, respectively. Consider `COC(=O)[C@@H](NC(=O)CN1C(=O)CC[C@H](NC(=O)c2cc(OC)c(OC)c(OC)c2)C1=O)C(C)C`, for which the half-maximal inhibitory concentration (IC50) is 21.4 µM at Aminopeptidase N and 1 µM in assay [1]. Regarding `COC(=O)[C@H](Cc1ccc(O)cc1)NC(=O)CN1C(=O)CC[C@H](NC(=O)c2cc(OC)c(OC)c(OC)c2)C1=O`, the concentration for half-maximal inhibition (IC50) at Aminopeptidase N was 44.8 µM; in assay [1], 0.3 µM. The matching figures for `COC(=O)[C@H](CCCCNC(=O)c1ccccc1)NC(=O)CN1C(=O)CC[C@H](NC(=O)c2cc(OC)c(OC)c(OC)c2)C1=O`: 38.1 µM and 0.6 µM. For the compound `COc1cc(C(=O)N[C@H]2CCC(=O)N(CC(=O)NO)C2=O)cc(OC)c1OC`, the IC50 on Aminopeptidase N turned out to be 3.1 µM; in assay [1] it was 2.2 µM.

As for `COC(=O)[C@H](Cc1ccccc1)NC(=O)CN1C(=O)CC[C@H](NC(=O)c2cc(OC)c(OC)c(OC)c2)C1=O`, the IC50 at Aminopeptidase N came to 11 µM; in assay [1], 1.3 µM. The matching figures for `COC(=O)[C@H](CC(C)C)NC(=O)CN1C(=O)CC[C@H](NC(=O)c2cc(OC)c(OC)c(OC)c2)C1=O`: 46.2 µM and 3.8 µM.
